Experimental data from paper PMC3005307 (Chemistry & biology, 2010).
“Also recorded” adds a separate entry of the source.

Tests used:
TcdB CPD = TcdB CPD (Clostridioides difficile, UniProt P18177); format: biochemical, Clostridium difficile; settings: autocleavage assay
TcdB holotoxin [1] = format: cell-based, human
TcdB holotoxin [2] = format: cell-based, human; remark: listed apart in the source

TcdB CPD, sequence (P18177 1-804 limits assumed): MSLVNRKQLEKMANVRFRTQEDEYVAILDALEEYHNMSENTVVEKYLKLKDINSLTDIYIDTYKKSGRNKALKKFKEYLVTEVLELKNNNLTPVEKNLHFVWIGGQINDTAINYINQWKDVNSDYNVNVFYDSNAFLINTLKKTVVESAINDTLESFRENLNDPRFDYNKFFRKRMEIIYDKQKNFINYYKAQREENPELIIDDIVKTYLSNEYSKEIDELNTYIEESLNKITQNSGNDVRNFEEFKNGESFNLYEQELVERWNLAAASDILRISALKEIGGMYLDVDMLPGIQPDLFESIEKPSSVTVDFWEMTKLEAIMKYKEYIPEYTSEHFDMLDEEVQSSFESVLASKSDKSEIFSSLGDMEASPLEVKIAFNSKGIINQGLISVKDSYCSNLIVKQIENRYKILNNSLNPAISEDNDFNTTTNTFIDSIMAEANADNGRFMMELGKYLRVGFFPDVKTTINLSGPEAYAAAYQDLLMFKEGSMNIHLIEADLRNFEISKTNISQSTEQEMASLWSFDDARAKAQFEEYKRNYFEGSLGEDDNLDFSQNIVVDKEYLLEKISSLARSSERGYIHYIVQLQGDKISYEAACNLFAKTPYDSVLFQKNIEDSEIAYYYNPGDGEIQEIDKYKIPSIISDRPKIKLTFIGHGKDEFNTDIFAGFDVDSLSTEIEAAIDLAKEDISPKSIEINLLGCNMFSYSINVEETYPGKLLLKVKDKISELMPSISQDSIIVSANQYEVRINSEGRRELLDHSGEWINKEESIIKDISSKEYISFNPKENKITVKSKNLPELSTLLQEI

JPM-OEt
inhibition of CPD activity (TcdB CPD): poorly inhibit CPD activity
effect on Rac1 glucosylation by holotoxin (TcdB holotoxin [1]): no effect on toxin function
effect on holotoxin-mediated cell rounding (TcdB holotoxin [2]): failed to inhibit toxin function; also recorded: no effect on toxin function
